These are literature values, as cited in patent US8247348B1, “Method of preserving cut plant material” (priority 2007, dated 2012).

The subject of series [1] is fungi.
Series [2] has as its system humans.

Structures are written as SMILES.

As to `O=C([O-])c1ccccc1.[Na+]` [Sodium benzoate], the “type of antifungal action” value in series [1] is given as “fungistatic not fungicidal”. Besides, the “pH at which effective” value in series [1] (effective only in acidic conditions) is less than 4.5.
Regarding `OCCO` [Ethylene glycol], the “amount that can be lethal” value in series [2] (adults, as little as (2 tablespoons)) is listed as 30 milliliters. The “estimated LD100” value in series [2] (in humans) is recorded as “approximately 1.4 ml/kg”.
